One may read the IC50 as the concentration at which inhibition is half-maximal.

From patent US9302991B2, “Arylamide derivatives as TTX-S blockers” (RaQualia Pharma Inc., priority 2010, dated 2016) come the findings set out here.

The test concerns the target T1, human Nav1.3 channels (Homo sapiens, UniProt Q9NY46).
T1 construct: expressed in transfected cells; host or cells: HEK293
The test can be described thus: FRET assay, human Nav1.3 (EFS on FDSS). The following applies: HEK293 cells expressing human Nav1.3, read-out: IC50 against Nav1.3. The test is classed as cell-based. On the procedure: The inhibitory activities of compounds against voltage gated sodium channels are determined by methodology well known in the art.
The ability of the aryl substituted carboxamide derivatives of the formula (I) to inhibit the NaV1.3, Nav1.7 and Nav1.5 channels is measured by Fluorescence Resonance Energy Transfer (FRET) assay and electrophysiology assay described below.
This screen is used to determine the effects of compounds on human Nav1.3, human Nav1.7, and human Nav1.5 channels, utilising electrical field stimulation (EFS) system in 96-well plate format on FDSS (Hamamatsu Photonics) platform. The change of membrane potential is monitored with FRET dye pair, oxonol (DiSBAC2(3)) and coumarin (CC2-DMPE).
Each HEK293 cells expressing human Nav1.3 channels and HEK293 cells expressing human Nav1.5 channels are grown in T225 flasks, in a 5% CO2 humidified incubator to about 80% confluence. Media composition consists of Dulbecco's Modified Eagle Medium (high glucose), 10% FCS, 100 units/mL Penicillin, 100 microgram/mL Streptomycin and 500 microgram/mL Geneticine.
Protocol: • Seed each cell lines (1×10^5 cells/well) into poly-D-lysine coated 96-well plates prior to experimentation. • Incubate at 37° C. in 5% CO2 for 24 hours. • Wash each well with assay buffer (140 mM NaCl, 4.5 mM KCl, 10 mM D-Glucose, 2 mM CaCl2, 1 mM MgCl2, 10 mM HEPES, pH 7.4 adjusted with NaOH) twice. • Add 1st loading solution containing 10 microM CC2-DMPE and 0.06% Pluronic F-127 in assay buffer. • Incubate the plate at room temperature in dark for 1 hour. • Remove 1st loading solution and added 2nd loading solution containing 15 microM DiSBAC2(3), 0.555 mM VABSC-1 and 0.004% Pluronic F-127 in assay buffer. • Place the plate under the dark at room temperature for 25 minutes. • Add compound solutions into the assay plate. • Set the assay plate in FDSS and placed an EFS device on the plate. • Measure EFS-induced fluorescent response by FDSS.
The data are analyzed and reported as normalized ratios of intensities measured at […]. The process of calculating these ratios is performed as follows:
This analysis is performed using a computerized specific program designed for FDSS generated data. Fluorescence ratio values are plotted using XLfit to determine an IC50 value for each compound.

T1 sequence (Q9NY46 whole entry): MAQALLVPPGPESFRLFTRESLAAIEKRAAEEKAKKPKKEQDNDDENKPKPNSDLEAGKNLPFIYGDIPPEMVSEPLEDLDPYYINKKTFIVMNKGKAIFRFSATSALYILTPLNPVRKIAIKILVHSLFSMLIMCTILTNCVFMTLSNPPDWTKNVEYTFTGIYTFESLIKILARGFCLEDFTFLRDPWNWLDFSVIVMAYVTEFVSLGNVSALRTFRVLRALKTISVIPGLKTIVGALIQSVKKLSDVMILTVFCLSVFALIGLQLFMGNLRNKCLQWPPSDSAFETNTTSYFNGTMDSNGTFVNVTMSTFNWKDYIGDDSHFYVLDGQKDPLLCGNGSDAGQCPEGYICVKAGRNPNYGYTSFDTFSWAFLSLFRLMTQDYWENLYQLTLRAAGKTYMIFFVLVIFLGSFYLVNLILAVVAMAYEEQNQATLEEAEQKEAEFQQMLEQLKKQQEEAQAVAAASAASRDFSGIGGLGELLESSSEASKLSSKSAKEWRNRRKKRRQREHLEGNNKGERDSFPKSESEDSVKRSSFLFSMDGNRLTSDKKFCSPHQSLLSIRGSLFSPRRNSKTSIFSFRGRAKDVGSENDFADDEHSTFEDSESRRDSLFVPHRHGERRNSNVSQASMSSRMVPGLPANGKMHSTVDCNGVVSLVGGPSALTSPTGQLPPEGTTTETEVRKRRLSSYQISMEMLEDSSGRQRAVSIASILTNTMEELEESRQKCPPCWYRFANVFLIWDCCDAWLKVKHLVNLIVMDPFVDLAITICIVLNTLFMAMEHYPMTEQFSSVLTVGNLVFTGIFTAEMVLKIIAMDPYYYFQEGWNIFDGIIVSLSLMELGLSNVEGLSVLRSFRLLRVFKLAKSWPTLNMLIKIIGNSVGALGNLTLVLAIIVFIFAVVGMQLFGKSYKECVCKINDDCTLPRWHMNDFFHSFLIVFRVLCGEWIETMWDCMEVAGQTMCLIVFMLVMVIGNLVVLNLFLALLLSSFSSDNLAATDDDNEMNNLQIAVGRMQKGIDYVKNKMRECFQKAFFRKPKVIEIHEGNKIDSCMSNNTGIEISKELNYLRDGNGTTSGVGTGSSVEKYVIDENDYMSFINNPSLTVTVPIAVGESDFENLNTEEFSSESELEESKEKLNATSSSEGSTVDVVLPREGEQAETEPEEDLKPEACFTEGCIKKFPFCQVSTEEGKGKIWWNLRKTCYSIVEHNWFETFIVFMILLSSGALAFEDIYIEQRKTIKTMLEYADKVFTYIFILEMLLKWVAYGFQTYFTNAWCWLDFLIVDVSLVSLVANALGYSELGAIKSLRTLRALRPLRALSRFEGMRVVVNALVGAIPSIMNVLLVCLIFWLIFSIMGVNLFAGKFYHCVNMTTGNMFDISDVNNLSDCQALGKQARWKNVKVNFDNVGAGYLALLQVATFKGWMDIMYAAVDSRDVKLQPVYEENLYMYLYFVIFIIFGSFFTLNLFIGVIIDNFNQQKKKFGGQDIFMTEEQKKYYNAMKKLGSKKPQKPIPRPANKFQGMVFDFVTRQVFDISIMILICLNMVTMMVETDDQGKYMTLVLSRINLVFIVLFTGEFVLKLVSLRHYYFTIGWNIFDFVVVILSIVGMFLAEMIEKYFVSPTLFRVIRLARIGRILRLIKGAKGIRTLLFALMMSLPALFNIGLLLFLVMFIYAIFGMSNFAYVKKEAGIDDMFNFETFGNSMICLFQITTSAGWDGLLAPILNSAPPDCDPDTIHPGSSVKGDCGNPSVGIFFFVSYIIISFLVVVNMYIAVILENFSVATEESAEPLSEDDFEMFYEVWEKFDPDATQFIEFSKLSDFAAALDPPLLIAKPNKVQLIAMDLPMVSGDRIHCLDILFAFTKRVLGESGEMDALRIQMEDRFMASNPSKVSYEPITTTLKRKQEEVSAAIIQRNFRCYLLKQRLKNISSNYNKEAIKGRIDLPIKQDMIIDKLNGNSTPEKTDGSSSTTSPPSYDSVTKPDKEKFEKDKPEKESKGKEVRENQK

Consider `Cc1cc(CNC(=O)c2cc(C)nc(NC(=O)C(C)C)c2)nc(OCC(F)(F)F)c1` [Example 577, 2-isobutyramido-6-methyl-N-((4-methyl-6-(2,2,2-trifluoroethoxy)pyridin-2-yl)methyl)isonicotinamide], for which the IC50 is less than 1000 nM.

For `Cc1cc(CNC(=O)c2ccnc(NC(=O)C3CC3)c2)nc(OCC(F)(F)F)c1` [Example 578, 2-(cyclopropanecarboxamido)-N-((4-methyl-6-(2,2,2-trifluoroethoxy)pyridin-2-yl)methyl)isonicotinamide], the IC50 was less than 1000 nM.

Turning to `CCC(=O)Nc1cc(C(=O)NCc2ccc(F)c(OC(F)(F)F)c2)cc(C)n1` [Example 591, N-(4-fluoro-3-(trifluoromethoxy)benzyl)-2-methyl-6-propionamidoisonicotinamide], the IC50 was less than 1000 nM.

In the case of `CCC(=O)Nc1cc(C(=O)NCc2cc(C)cc(OC(F)(F)F)c2)ccn1` [Example 598, N-(3-methyl-5-(trifluoromethoxy)benzyl)-2-propionamidoisonicotinamide], the IC50 was less than 1000 nM.

Turning to `Cc1cc(CNC(=O)c2ccnc(NC(=O)C3CC3)c2)cc(OC(F)(F)F)c1` [Example 599, 2-(cyclopropanecarboxamido)-N-(3-methyl-5-(trifluoromethoxy)benzyl)isonicotinamide], the IC50 is less than 1000 nM.

On to `Cc1cc(CNC(=O)c2ccnc(NC(=O)C3CC3)n2)cc(OC(F)(F)F)c1` [Example 604, 2-(cyclopropanecarboxamido)-N-(3-methyl-5-(trifluoromethoxy)benzyl)pyrimidine-4-carboxamide], for which the IC50 was less than 1000 nM.

In the case of `CCC(=O)Nc1cc(C(=O)NCc2cc(OC(F)(F)F)ccc2F)ccn1` [Example 607, N-(2-fluoro-5-(trifluoromethoxy)benzyl)-2-propionamidoisonicotinamide], the IC50 was less than 1000 nM.

As to `O=C(NCc1cc(OC(F)(F)F)ccc1F)c1ccnc(NC(=O)C2CC2)c1` [Example 608], the IC50 was less than 1000 nM.

As to `CCC(=O)Nc1cc(C(=O)NCc2cc(OC(F)(F)F)ccc2F)cc(C)n1` [Example 609, N-(2-fluoro-5-(trifluoromethoxy)benzyl)-2-methyl-6-propionamidoisonicotinamide], the IC50 is less than 1000 nM.

With `CCC(=O)Nc1cc(C(=O)NCc2ccc(OCC(F)(F)C(F)(F)F)nc2)ccn1` [Example 639, N-((6-(2,2,3,3,3-pentafluoropropoxy)pyridin-3-yl)methyl)-2-propionamidoisonicotinamide], the IC50 was less than 1000 nM.

In the case of `CC(C)C(=O)Nc1cc(C(=O)NCc2ccc(OCC(F)(F)C(F)(F)F)nc2)ccn1` [Example 641, 2-isobutyramido-N-((6-(2,2,3,3,3-pentafluoropropoxy)pyridin-3-yl)methyl)isonicotinamide], the IC50 was less than 1000 nM.

With `O=C(NCc1ccc(COCC(F)(F)F)cc1)c1ccnc(NC(=O)C2CC2)c1` [Example 665, 2-(cyclopropanecarboxamido)-N-(4-((2,2,2-trifluoroethoxy)methyl)benzyl)isonicotinamide], the IC50 was less than 1000 nM.

As for `CC(=O)Nc1cc(C(=O)NCc2ccc(Cl)c(C(F)(F)F)c2)ccn1` [Example 682, 2-acetamido-N-(4-chloro-3-(trifluoromethyl)benzyl)isonicotinamide], the IC50 is less than 1000 nM.

Consider `CCc1cc(CNC(=O)c2ccnc(NC(C)=O)c2)cnc1OCC(F)(F)F` [Example 709, 2-acetamido-N-((5-ethyl-6-(2,2,2-trifluoroethoxy)pyridin-3-yl)methyl)isonicotinamide], for which the IC50 was less than 1000 nM.

Regarding `CCC(=O)Nc1cc(C(=O)NCc2cnc(OCC(F)(F)F)c(CC)c2)ccn1` [Example 710, N-((5-ethyl-6-(2,2,2-trifluoroethoxy)pyridin-3-yl)methyl)-2-propionamidoisonicotinamide], the IC50 is less than 1000 nM.

On to `CCc1cc(CNC(=O)c2ccnc(NC(=O)C3CC3)c2)cnc1OCC(F)(F)F` [Example 711, 2-(cyclopropanecarboxamido)-N-((5-ethyl-6-(2,2,2-trifluoroethoxy)pyridin-3-yl)methyl)isonicotinamide], for which the IC50 is less than 1000 nM.

For `CCc1cc(CNC(=O)c2ccnc(NC(=O)C(C)C)c2)cnc1OCC(F)(F)F` [Example 712, N-((5-ethyl-6-(2,2,2-trifluoroethoxy)pyridin-3-yl)methyl)-2-isobutyramidoisonicotinamide], the IC50 is less than 1000 nM.

In the case of `CCc1cc(CNC(=O)c2cc(C)nc(NC(C)=O)c2)cnc1OCC(F)(F)F` [Example 713, 2-acetamido-N-((5-ethyl-6-(2,2,2-trifluoroethoxy)pyridin-3-yl)methyl)-6-methylisonicotinamide], the IC50 was less than 1000 nM.

As to `CCC(=O)Nc1cc(C(=O)NCc2cnc(OCC(F)(F)F)c(CC)c2)cc(C)n1` [Example 714, N-((5-ethyl-6-(2,2,2-trifluoroethoxy)pyridin-3-yl)methyl)-2-methyl-6-propionamidoisonicotinamide], the IC50 was less than 1000 nM.

For the compound `CCc1cc(CNC(=O)c2cc(C)nc(NC(=O)C(C)C)c2)cnc1OCC(F)(F)F` [Example 715, N-((5-ethyl-6-(2,2,2-trifluoroethoxy)pyridin-3-yl)methyl)-2-isobutyramido-6-methylisonicotinamide], the IC50 is less than 1000 nM.

Regarding `CCc1cc(CNC(=O)c2ccnc(NC(=O)C3CC3)n2)cnc1OCC(F)(F)F` [Example 717, 2-(cyclopropanecarboxamido)-N-((5-ethyl-6-(2,2,2-trifluoroethoxy)pyridin-3-yl)methyl)pyrimidine-4-carboxamide], the IC50 was less than 1000 nM.

As for `CCc1cc(CNC(=O)c2cc(C)nc(NC(=O)C3CC3)n2)cnc1OCC(F)(F)F` [Example 718, 2-(cyclopropanecarboxamido)-N-((5-ethyl-6-(2,2,2-trifluoroethoxy)pyridin-3-yl)methyl)-6-methylpyrimidine-4-carboxamide], the IC50 is less than 1000 nM.

In the case of `CCC(=O)Nc1cc(C(=O)NCc2ccc(OCC(C)(F)F)nc2)ccn1` [Example 719, N-((6-(2,2-difluoropropoxy)pyridin-3-yl)methyl)-2-propionamidoisonicotinamide], the IC50 is less than 1000 nM.

Consider `CCC(=O)Nc1cc(C(=O)NCc2ccc(OCC(C)(F)F)nc2)cc(C)n1` [Example 721, N-((6-(2,2-difluoropropoxy)pyridin-3-yl)methyl)-2-methyl-6-propionamidoisonicotinamide], for which the IC50 is less than 1000 nM.

On to `CC(=O)Nc1cc(C(=O)NCc2cnc(OCC(F)(F)F)c(C(F)(F)F)c2)cc(C)n1` [Example 727, 2-acetamido-6-methyl-N-((6-(2,2,2-trifluoroethoxy)-5-(trifluoromethyl)pyridin-3-yl)methyl)isonicotinamide], for which the IC50 was less than 1000 nM.

For the compound `CC(=O)Nc1cc(C(=O)NCc2cccc(C(F)(F)F)c2F)cc(C)n1` [Example 729, 2-acetamido-N-(2-fluoro-3-(trifluoromethyl)benzyl)-6-methylisonicotinamide], the IC50 was less than 1000 nM.

Regarding `CC(C)C(=O)Nc1cc(C(=O)NCc2cccc(C(F)(F)F)c2F)ccn1` [Example 730, N-(2-fluoro-3-(trifluoromethyl)benzyl)-2-isobutyramidoisonicotinamide], the IC50 is less than 1000 nM.

As for `O=C(NCc1cc(C(F)(F)F)cc(C(F)(F)F)c1)c1ccnc(NC(=O)C2CC2)n1` [Example 736, N-(3,5-bis(trifluoromethyl)benzyl)-2-(cyclopropanecarboxamido)pyrimidine-4-carboxamide], the IC50 is less than 1000 nM.

On to `CCC(=O)Nc1cc(C(=O)NCc2cnc(OCC(F)F)c(C)c2)ccn1` [Example 738, N-((6-(2,2-difluoroethoxy)-5-methylpyridin-3-yl)methyl)-2-propionamidoisonicotinamide], for which the IC50 was less than 1000 nM.

`Cc1cc(CNC(=O)c2ccnc(NC(=O)C3CC3)c2)cnc1OCC(F)F` [Example 739, 2-(cyclopropanecarboxamido)-N-((6-(2,2-difluoroethoxy)-5-methylpyridin-3-yl)methyl)isonicotinamide]: the IC50 was less than 1000 nM.

In the case of `CCC(=O)Nc1cc(C(=O)NCc2cnc(OCC(F)F)c(C)c2)cc(C)n1` [Example 740, N-((6-(2,2-difluoroethoxy)-5-methylpyridin-3-yl)methyl)-2-methyl-6-propionamidoisonicotinamide], the IC50 was less than 1000 nM.

Regarding `CC(=O)Nc1cc(C(=O)NCc2cnc(OCC(F)F)c(C)c2)cc(C)n1` [Example 742, 2-acetamido-N-((6-(2,2-difluoroethoxy)-5-methylpyridin-3-yl)methyl)-6-methylisonicotinamide], the IC50 was less than 1000 nM.
